Where a chain is given by its changes, count along the chain named. Several values for one entry are separate records, joined by “and”; a condition that tells them apart may be missing. Equal values may be shown once. Entries after “also recorded” stand apart in the source; their conditions may differ.
How the values were obtained:
[1] = tested on: DHT mediated AR transcription in LNCaP cells; experiment: Transcriptional activation luciferase assay; format: cell-based, human; details: 10 μM compound, 10 nM DHT, 24 h
[2] = target: T1, full-length and truncated AR (AR-3) (Homo sapiens, UniProt P10275); experiment: Western blot analysis of fAR and tAR-3 expression in CWR22Rv1 cells; details: 15 μM, 24 h
T1 sequence (P10275 1-920): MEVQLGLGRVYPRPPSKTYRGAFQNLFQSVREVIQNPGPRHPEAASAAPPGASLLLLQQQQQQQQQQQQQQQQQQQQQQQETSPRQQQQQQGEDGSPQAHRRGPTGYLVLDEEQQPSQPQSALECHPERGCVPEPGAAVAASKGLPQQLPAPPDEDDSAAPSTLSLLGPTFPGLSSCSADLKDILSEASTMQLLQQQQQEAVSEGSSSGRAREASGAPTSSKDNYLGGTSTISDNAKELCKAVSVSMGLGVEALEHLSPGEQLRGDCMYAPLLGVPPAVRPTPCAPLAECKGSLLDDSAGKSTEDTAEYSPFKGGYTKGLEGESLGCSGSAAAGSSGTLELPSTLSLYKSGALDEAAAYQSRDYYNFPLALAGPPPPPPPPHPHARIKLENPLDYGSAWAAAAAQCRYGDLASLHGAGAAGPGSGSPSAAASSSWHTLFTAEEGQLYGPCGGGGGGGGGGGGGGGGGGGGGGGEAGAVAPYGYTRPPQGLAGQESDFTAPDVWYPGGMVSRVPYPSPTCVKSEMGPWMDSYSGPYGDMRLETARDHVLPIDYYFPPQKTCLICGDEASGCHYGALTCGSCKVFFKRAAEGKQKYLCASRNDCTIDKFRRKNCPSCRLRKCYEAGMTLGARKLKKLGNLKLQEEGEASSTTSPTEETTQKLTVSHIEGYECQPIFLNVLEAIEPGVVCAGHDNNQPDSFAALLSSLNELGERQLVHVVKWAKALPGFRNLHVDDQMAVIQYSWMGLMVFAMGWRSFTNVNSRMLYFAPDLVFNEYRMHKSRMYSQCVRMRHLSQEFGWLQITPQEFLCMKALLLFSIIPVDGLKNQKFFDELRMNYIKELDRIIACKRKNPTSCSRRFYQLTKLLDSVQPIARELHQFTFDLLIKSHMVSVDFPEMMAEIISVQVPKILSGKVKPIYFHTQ

[3] = Solubility in ethanol or DMSO; format: physicochemical; details: prevented biological testing
AR [4] = target: T2, AR (Homo sapiens, UniProt P10275, T878A); format: cell-based; details: LNCaP cells, 15 μM, 24 h, Western blot
T2 sequence (P10275 1-920 T878A): T1 sequence (P10275 1-920) with T878A

LNCaP cells = experiment: Cell growth inhibition; format: cell-based, human
AR [5] = target: T2, AR; experiment: Immunocytochemical analysis of AR expression in LNCaP cells; details: 5 μM, 48 h

| Compound | inhibition of DHT mediated transcription [1] | effect on AR protein expression (AR degradation / ARD activity) (AR [4]) | further results |
| --- | --- | --- | --- |
| C[C@]12CC/C(=N\OCc3ccccc3)C=C1CC[C@@H]1[C@@H]2CC[C@]2(C)C(n3cnc4ccccc43)=CC[C@@H]12 (mixture of isomers) [Compound 39, 3-((EZ)-(O-Phenylmethyl)oxime)-17-(1H-Benzimidazol-1-yl)-androsta-4,16-diene] | 65–100% | – | – |
| C[C@]12CC[C@H](OC(=O)c3ccncc3)CC1=CC[C@@H]1[C@@H]2CC[C@]2(C)C(n3cnc4ccccc43)=CC[C@@H]12 [Compound 43, 3β-(Pyridine-4-carboxylate)-17-(1H-benzimidazol-1-yl)-androsta-5,16-diene] | – | – | effect on full-length and truncated AR (AR-3) expression [2]: could degrade both full-length and truncated AR |
| CO/N=C1/C=C2CC[C@@H]3[C@H](CC[C@]4(C)C(n5cnc6ccccc65)=CC[C@@H]34)[C@@]2(C)CC1 (mixture of isomers) [Compound 38, 3-((EZ)-O-Methyloxime)-17-(1H-Benzimidazol-1-yl)-androsta-4,16-diene] | 65–100% | – | – |
| C[C@]12CC/C(=N\Oc3ccccc3)C=C1CC[C@@H]1[C@@H]2CC[C@]2(C)C(n3cnc4ccccc43)=CC[C@@H]12 (mixture of isomers) [Compound 37, 3-((EZ)-O-Phenyloxime)-17-(1H-Benzimidazol-1-yl)-androsta-4,16-diene] | – | – | solubility in ethanol or DMSO [3]: limited solubility in ethanol or DMSO |
| COc1ccc(NCC2=C(n3cnc4ccccc43)[C@@]3(C)CC[C@H]4[C@@H](CC=C5C[C@@H](O)CC[C@@]54C)[C@@H]3C2)cc1OC [Compound 31, 3β-Hydoxy-17-(1H-benzimidazol-1-yl)-16-(((3,4-dimethoxyphenyl)amino)methyl)-androsta-5,16-diene] | – | significant loss of ARD | effect on full-length and truncated AR (AR-3) expression [2]: significant down-regulation of both full-length and truncated AR |
| CC(C)CCNCC1=C(n2cnc3ccccc32)[C@@]2(C)CC[C@H]3[C@@H](CC=C4C[C@@H](O)CC[C@@]43C)[C@@H]2C1 [Compound 25, 3β-Hydoxy-17-(1H-benzimidazol-1-yl)-16-((isopentylamino)methyl)-androsta-5,16-diene] | 65–100% | significant loss of ARD | – |
| COc1ccc2ncn(C3=CC[C@H]4[C@@H]5CC=C6C[C@@H](O)CC[C@]6(C)[C@H]5CC[C@]34C)c2c1 [Compound 19, 3β-Hydroxy-17-(6-methoxy-1H-benzimidazol-1-yl)-androsta-5,16-diene] | – | no modulation of ARDA | – |
| C[C@]12CC[C@H](OC(=O)c3cccnc3)CC1=CC[C@@H]1[C@@H]2CC[C@]2(C)C(n3cnc4ccccc43)=CC[C@@H]12 [Compound 42, 3β-(Pyridine-3-carboxylate)-17-(1H-benzimidazol-1-yl)-androsta-5,16-diene] | – | – | solubility in ethanol or DMSO [3]: limited solubilities in ethanol or DMSO |
| C[C@]12CC[C@H](O)CC1=CC[C@@H]1[C@@H]2CC[C@]2(C)C(n3cnc4cc(C#N)ccc43)=CC[C@@H]12 [Compound 18, 3β-Hydroxy-17-(5(6)-nitrile-1H-benzimidazol-1-yl)-androsta-5,16-diene] | – | diminished AR down-regulation (ARD) activity | GI50 (LNCaP cells; read-out: GI50, C-17 modified compounds, MTT, 7 days, at least three independent experiments, SEM < 10%): 2810 nM |
| C[C@]12CC[C@H](OS(C)(=O)=O)CC1=CC[C@@H]1[C@@H]2CC[C@]2(C)C(n3cnc4ccccc43)=CC[C@@H]12 [Compound 34, 3β-Mesyloxy-17-(1H-benzimidazol-1-yl)-androsta-5,16-dien] | 65–100% | – | – |
| C[C@]12CCC(=NO)C=C1CC[C@@H]1[C@@H]2CC[C@]2(C)C(n3cnc4ccccc43)=CC[C@@H]12 (mixture of isomers) [Compound 36, 3-((EZ)-Hydroximino)-17-(1H-Benzimidazol-1-yl)-androsta-4,16-diene] | 65–100% | – | effect on full-length and truncated AR (AR-3) expression [2]: could degrade both full-length and truncated AR; also recorded: significant down-regulation of both full-length and truncated AR |
| Cc1nccn1C(=O)O[C@H]1CC[C@@]2(C)C(=CC[C@@H]3[C@@H]2CC[C@]2(C)C(n4cnc5ccccc54)=CC[C@@H]32)C1 [Compound 48, 3β-(2-Methyl-1H-imidazole-1-carboxylate)-17-(1H-benzimidazol-1-yl)-androsta-5,16-diene] | – | – | fold decrease in anti-proliferative activity relative to 47 (LNCaP cells; from GI50): 6 fold |
| C[C@]12CC[C@H](OC(=O)n3cncn3)CC1=CC[C@@H]1[C@@H]2CC[C@]2(C)C(n3cnc4ccccc43)=CC[C@@H]12 [Compound 49, 3β-(1H-1,2,4-Triazole-1-carboxylate)-17-(1H-benzimidazol-1-yl)-androsta-5,16-diene] | – | significant up-regulation of AR | – |
| C[C@]12CC[C@H](OC(=O)n3ccnc3)CC1=CC[C@@H]1[C@@H]2CC[C@]2(C)C(n3cnc4ccccc43)=CC[C@@H]12 [Compound 47, 3β-(1H-Imidazole-1-carboxylate)-17-(1H-benzimidazol-1-yl)-androsta-5,16-diene] | 65–100% | most potent | effect on full-length and truncated AR (AR-3) expression [2]: could degrade both full-length and truncated AR; also recorded: significant down-regulation of both full-length and truncated AR; fold more potent than compound 5, anti-proliferative activity (LNCaP cells; from GI50): 4 fold and ~ 4 fold; AR levels in the nucleus (AR [5]): significant decrease in AR levels in the nucleus |
| C[C@]12CC[C@H](OC(=O)c3ccccn3)CC1=CC[C@@H]1[C@@H]2CC[C@]2(C)C(n3cnc4ccccc43)=CC[C@@H]12 [Compound 41, 3β-(Pyridine-2-carboxylate)-17-(1H-benzimidazol-1-yl)-androsta-5,16-diene] | – | – | solubility in ethanol or DMSO [3]: limited solubilities in ethanol or DMSO |
| C[C@]12CC[C@H](O)CC1=CC[C@@H]1[C@@H]2CC[C@]2(C)C(n3cnc4ccccc43)=C(CNc3ccccc3)C[C@@H]12 [Compound 28, 3β-Hydoxy-17-(1H-benzimidazol-1-yl)-16-((phenylamino)methyl)-androsta-5,16-diene] | 65–100% | significant loss of ARD | – |

— article PMC3959744 (Journal of medicinal chemistry, 2013)
